Results from patent US20260317319A1, “NOVEL ERGOLINES AND METHODS OF TREATING MOOD DISORDERS” (Gilgamesh Pharma Inc., priority 2023, published 2026).
pEC50: −log10 of the molar value. Read-outs that look alike come from different tables or passages of the source.

Columns and labels:
5-HT2B receptor = target: T1, 5-HT2B receptor (Homo sapiens, UniProt P41595); assay: cell-based; type: cell-based; settings: HEK293, agonist, Ca2+ flux, HEK293, max dose; read-out: 5-HT2B % Act @ Max Dose
T1 construct: expressed in transfected cells; host or cells: HEK293, stably transfected
T1 sequence (P41595 whole entry): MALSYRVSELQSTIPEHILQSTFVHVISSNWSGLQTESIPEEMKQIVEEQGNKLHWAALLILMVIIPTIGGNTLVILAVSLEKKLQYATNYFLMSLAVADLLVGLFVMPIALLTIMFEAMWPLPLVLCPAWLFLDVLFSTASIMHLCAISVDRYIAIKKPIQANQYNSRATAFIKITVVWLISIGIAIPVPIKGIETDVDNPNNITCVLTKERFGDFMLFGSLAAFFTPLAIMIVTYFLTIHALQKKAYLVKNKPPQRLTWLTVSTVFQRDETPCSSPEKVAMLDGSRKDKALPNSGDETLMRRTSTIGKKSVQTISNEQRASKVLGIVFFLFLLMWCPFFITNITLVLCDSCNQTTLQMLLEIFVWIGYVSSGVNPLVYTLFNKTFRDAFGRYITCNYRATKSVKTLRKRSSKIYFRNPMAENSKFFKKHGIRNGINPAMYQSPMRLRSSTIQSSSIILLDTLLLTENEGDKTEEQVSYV
Description: (§1) Functional Assays at 5-HT2A, 5-HT2B, and 5-HT1A. Agonist activity at 5-HT2A, 5-HT2B, 5HT2C and 5-HT1A receptors was determined using a FLIPR Ca^2+ flux assay at WuXi AppTec (Hong Kong) Limited according to their standard protocols. Briefly, stably transfected cells expressing the receptor of interest and Gα15 in the case of 5-HT1A (HEK293 for 5-HT2A and 5-HT2B; CHO cells for 5-HT1A) were grown and plated in a 384 well plate and incubated at 37° C. and 5% CO2 overnight. A solution of 250 mM probenecid in 1 mL FLIPR assay buffer was prepared fresh. This was combined with a fluorescent dye (Fluo-4 Direct™) to make a final assay concentration of 2.5 mM. […] The fluorescent dye was then added to the assay plate along with assay buffer to a final volume of 40 μL. The cell plate was incubated for 50 min at 37° C. and 5% CO2 and placed into the FLIPR Tetra along with the compound plate. 10 μL of references and compounds were then transferred from the compound plate into the cell plate and the fluorescent signal was read.

5-HT1A receptor = target: T2, 5-HT1A receptor (Homo sapiens, UniProt P08908); assay: cell-based; settings: CHO, agonist, Ca2+ flux, CHO cells with Gα15, max dose; read-out: 5-HT1A % Act @ Max Dose
T2 construct: expressed in transfected cells; host or cells: CHO cells, stably transfected
T2 sequence (P08908 1-422): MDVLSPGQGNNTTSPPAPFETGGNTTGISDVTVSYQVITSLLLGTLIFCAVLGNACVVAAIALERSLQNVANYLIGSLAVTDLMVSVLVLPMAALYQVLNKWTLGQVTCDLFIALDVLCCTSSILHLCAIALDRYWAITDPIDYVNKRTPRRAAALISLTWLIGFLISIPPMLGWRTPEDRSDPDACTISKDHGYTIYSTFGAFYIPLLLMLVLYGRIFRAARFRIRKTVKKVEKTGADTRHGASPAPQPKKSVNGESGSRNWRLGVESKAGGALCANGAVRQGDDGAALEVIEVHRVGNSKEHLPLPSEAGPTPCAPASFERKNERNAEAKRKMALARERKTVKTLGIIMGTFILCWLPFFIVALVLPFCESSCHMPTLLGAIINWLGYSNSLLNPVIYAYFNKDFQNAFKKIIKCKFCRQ
Description: as §1

5-HT1B receptor = target: T3, 5-HT1B receptor (Homo sapiens, UniProt P28222); assay: cAMP accumulation functional assay at 5-HT1B; type: cell-based; settings: agonist, cAMP accumulation, max dose; read-out: 5-HT1B % Act @ Max Dose
T3 construct: expressed in transfected cells
T3 sequence (P28222 whole entry): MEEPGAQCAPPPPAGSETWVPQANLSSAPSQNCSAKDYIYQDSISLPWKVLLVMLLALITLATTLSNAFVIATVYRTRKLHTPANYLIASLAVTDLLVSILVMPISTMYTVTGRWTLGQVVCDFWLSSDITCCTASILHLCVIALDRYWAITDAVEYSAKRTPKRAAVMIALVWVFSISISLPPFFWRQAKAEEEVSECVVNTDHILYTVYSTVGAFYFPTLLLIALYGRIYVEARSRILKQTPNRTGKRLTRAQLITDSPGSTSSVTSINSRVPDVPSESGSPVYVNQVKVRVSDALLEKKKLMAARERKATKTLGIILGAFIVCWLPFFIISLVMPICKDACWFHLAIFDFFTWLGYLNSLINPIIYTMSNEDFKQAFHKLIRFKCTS
Description: Functional Assay at 5-HT1B. Agonist activity at 5-HT1B was determined using a CAMP accumulation protocol at WuXi AppTec (Hong Kong) Limited according to their standard protocols. Briefly, stably transfected cells were plated in an OptiPlate-384 well plate, incubated at RT for 60 mins, and cAMP standard solution (800 nM, 10 μL) was added to the blank well. Then, 10 μL detection reagent was added to each well, the plate incubated for 60 mins at RT, and the plate read using En Vision.

5-HT2A receptor [1] = target: T4, 5-HT2A receptor (Homo sapiens, UniProt P28223); assay: biochemical; type: binding; set-up: expressed in transfected cells; host or cells: HEK293, stably transfected; settings: radioligand binding, 5-HT2A
T4 sequence (P28223 whole entry): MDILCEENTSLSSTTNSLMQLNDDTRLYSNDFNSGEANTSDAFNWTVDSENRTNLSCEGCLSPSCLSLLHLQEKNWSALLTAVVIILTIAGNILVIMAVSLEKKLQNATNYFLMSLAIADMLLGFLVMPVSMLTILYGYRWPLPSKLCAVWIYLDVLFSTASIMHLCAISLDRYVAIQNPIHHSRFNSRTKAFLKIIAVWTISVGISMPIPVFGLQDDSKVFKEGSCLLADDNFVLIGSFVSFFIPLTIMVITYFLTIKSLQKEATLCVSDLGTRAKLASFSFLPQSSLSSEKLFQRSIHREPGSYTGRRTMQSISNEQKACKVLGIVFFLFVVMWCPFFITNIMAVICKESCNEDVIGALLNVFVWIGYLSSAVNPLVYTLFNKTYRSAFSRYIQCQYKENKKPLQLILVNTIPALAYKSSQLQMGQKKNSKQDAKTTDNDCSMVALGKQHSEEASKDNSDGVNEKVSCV
Outline: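 Binding affinity comes from a [^3H]ketanserin radioligand assay run under literature-adapted conditions.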

5-HT2A receptor [2] = target: T4, 5-HT2A receptor; assay: cell-based; type: cell-based; set-up: expressed in transfected cells; host or cells: HEK293, stably transfected; settings: for Emax: HEK293, agonist, Ca2+ flux, HEK293, max dose, read-out: 5-HT2A % Act @ Max Dose
Description: as §1

5-HT2A receptor [3] = target: T4, 5-HT2A receptor; assay: cell-based; type: cell-based; settings: agonist, beta-arrestin recruitment; for pEC50: PathHunter, read-out: 5-HT2A Arrestin EC50; for Emax: max dose, read-out: 5-HT2A Arrestin % Act @ Max Dose
Description: Arrestin Functional Assay at 5-HT2A. Recruitment of beta-arrestin was determined using a PathHunter assay at Eurofins DiscoverX (Fremont, CA) according to their standard protocols. PathHunter GPCR beta-arrestin assays take advantage of DiscoverX's proprietary Enzyme Fragment Complementation technology. The GPCR is fused in frame with a small enzyme donor fragment ProLink™ (PK) and co-expressed in cells stably expressing a fusion protein of beta-arrestin and the larger, N-terminal deletion mutant of beta-galactosidase. Activation of the GPCR (5-HT2A receptor in this case) stimulates binding of beta-arrestin to the PK-tagged GPCR and forces complementation of the two enzyme fragments, resulting in the formation of an active beta-galactosidase enzyme. This interaction leads to an increase in enzyme activity that can be measured using chemiluminescent PathHunter Detection Reagents. Briefly, PathHunter cells expressing 5-HT2A receptors were seeded in a volume of 20 μL into 384-well plates and incubated at 37° C. for the appropriate time prior to testing. […] Plates were then imaged on a microplate reader and the agonist activity was calculated using the following formula: % Activity=100%×(mean RLU of test sample-mean RLU of vehicle control)/(mean MAX control ligand-mean RLU of vehicle control), where RLU=relative light units.

in vitro [4] = type: in vitro ADME, human; settings: HLM 0.50 mg/mL, NADPH 1 mM, 1 μM compound, pH 7.4, 37° C., 60 min
in vitro [5] = type: in vitro ADME, mouse; settings: MLM (male CD-1) 0.50 mg/mL, NADPH 1 mM, 1 μM compound, pH 7.4, 37° C., 60 min
Source text: MLM Stability Pooled MLM from male CD-1 mice (BIOIVT M00501) were used.

in vitro [6] = type: in vitro ADME, rat; settings: RLM (male Sprague-Dawley) 0.50 mg/mL, NADPH 1 mM, 1 μM compound, pH 7.4, 37° C., 60 min
Source text: RLM Stability Pooled RLM from male Sprague-Dawley rats (Xenotech R1000) were used.

SMILES | Emax (5-HT2B receptor) [%] | Emax (5-HT1A receptor) [%] | Emax (5-HT1B receptor) [%] | potency in receptor binding (5-HT2A receptor [1]) | Emax (5-HT2A receptor [2]) [%] | pEC50 (5-HT2A receptor [3]) | Emax (5-HT2A receptor [3]) [%] | Intrinsic clearance (Clint) (in vitro [4]) [µL/min/mg] | half-life (t1/2) (in vitro [4]) [min] | Intrinsic clearance (Clint) (in vitro [5]) [µL/min/mg] | half-life (t1/2) (in vitro [5]) [min] | Intrinsic clearance (Clint) (in vitro [6]) [µL/min/mg] | half-life (t1/2) (in vitro [6]) [min] | selectivity for 5-HT2A over the other serotonin receptors tested (5-HT2A receptor [2]; functional agonist activity)
CCCN1C[C@H](C(=O)N(CC)CC)C=C2c3cccc4c3C(CN4)C[C@H]21 (mixture of isomers) [Compound 36, (6aR,9R)—N,N-diethyl-7-propyl-4,5,5a,6,6a,7,8,9-octahydroindolo[4,3-fg]quinoline-9-carboxamide] | 111 | 88.7 | 97.5 | reduced in potency compared to their dehydro counterparts | 77.5 | – | – | – | – | – | – | – | – | –
CCN(CC)C(=O)[C@@H]1C=C2c3cccc4[nH]cc(c34)C[C@H]2N(Cc2ccccc2O)C1 [Compound 16, (6aR,9R)—N,N-diethyl-7-(2-hydroxybenzyl)-4,6,6a,7,8,9-hexahydroindolo[4,3-fg]quinoline-9-carboxamide] | 26.5 | 22.3 | 90.1 | – | 62 | 8.40 | 47.6 | 285.8 | 4.9 | 1053.2 | 1.3 | 616.3 | 2.2 | –
CCN(CC)C(=O)[C@@H]1C=C2c3cccc4[nH]cc(c34)C[C@H]2N(CCc2cccc(OC)c2)C1 [Compound 20, (6aR,9R)—N,N-diethyl-7-(3-methoxyphenethyl)-4,6,6a,7,8,9-hexahydroindolo[4,3-fg]quinoline-9-carboxamide] | 3.6 | 3.85 | 34.6 | – | 77.2 | 8.75 | 83.5 | 649.2 | 2.1 | 1548.2 | 0.9 | 1147.6 | 1.2 | –
CCN(CC)C(=O)[C@@H]1C=C2c3cccc4[nH]cc(c34)C[C@H]2N(CCc2ccc(OC)cc2)C1 [Compound 21, (6aR,9R)—N,N-diethyl-7-(4-methoxyphenethyl)-4,6,6a,7,8,9-hexahydroindolo[4,3-fg]quinoline-9-carboxamide] | 1.73 | 8.2 | 79.1 | – | 51.2 | 8.23 | 93.7 | 367.7 | 3.8 | 717.4 | 1.9 | 323.2 | 4.3 | –
CCN(CC)C(=O)[C@@H]1C=C2c3cccc4[nH]cc(c34)C[C@H]2N(Cc2ccccn2)C1 [Compound 22, (6aR,9R)—N,N-diethyl-7-(pyridin-2-ylmethyl)-4,6,6a,7,8,9-hexahydroindolo[4,3-fg]quinoline-9-carboxamide] | 7.74 | 57.3 | 89.2 | – | 64.5 | 8.20 | 40.6 | 58.2 | 23.8 | 150.0 | 9.2 | 104.8 | 13.2 | –
CCN(CC)C(=O)[C@@H]1C=C2c3cccc4[nH]cc(c34)C[C@H]2N(CCc2ccccn2)C1 [Compound 23, (6aR,9R)—N,N-diethyl-7-(2-(pyridin-2-yl)ethyl)-4,6,6a,7,8,9-hexahydroindolo[4,3-fg]quinoline-9-carboxamide] | 12.5 | 46.2 | 83.7 | – | 85.4 | 8.22 | 65.2 | 193.3 | 7.2 | 768.7 | 1.8 | 331.7 | 4.2 | –
CCN(CC)C(=O)[C@@H]1C=C2c3cccc4[nH]cc(c34)C[C@H]2N(CCF)C1 [Compound 39, (6aR,9R)—N,N-diethyl-7-(2-fluoroethyl)-4,6,6a,7,8,9-hexahydroindolo[4,3-fg]quinoline-9-carboxamide] | 85.5 | 91.2 | 99 | – | 95.5 | – | – | – | – | – | – | – | – | –
CC[C@@H](C)NC(=O)[C@@H]1C=C2c3cccc4[nH]cc(c34)C[C@H]2N(CCC(F)(F)F)C1 [Compound 40, (6aR,9R)—N—((R)-sec-butyl)-7-(3,3,3-trifluoropropyl)-4,6,6a,7,8,9-hexahydroindolo[4,3-fg]quinoline-9-carboxamide] | 8.46 | 22.3 | 62.1 | – | 45.1 | – | – | – | – | – | – | – | – | highly selective for 5-HT2A
CCN(CC)C(=O)[C@@H]1C=C2c3cccc4[nH]c(Br)c(c34)C[C@H]2N(CCCF)C1 [Compound 41, (6aR,9R)-5-bromo-N,N-diethyl-7-(3-fluoropropyl)-4,6,6a,7,8,9-hexahydroindolo[4,3-fg]quinoline-9-carboxamide] | 84.5 | 39.8 | 61.5 | – | 75.4 | – | – | – | – | – | – | – | – | –
CCCN1C[C@H](C(=O)N[C@H](C)CC)C=C2c3cccc4[nH]c(Br)c(c34)C[C@H]21 [Compound 46, (6aR,9R)-5-bromo-N—((R)-sec-butyl)-7-propyl-4,6,6a,7,8,9-hexahydroindolo[4,3-fg]quinoline-9-carboxamide] | 79 | 69.5 | 78.8 | – | 69.5 | – | – | – | – | – | – | – | – | –
CCCN1C[C@H](C(=O)N2[C@@H](C)C[C@@H]2C)C=C2c3cccc4[nH]c(Br)c(c34)C[C@H]21 [Compound 47, ((6aR,9R)-5-bromo-7-propyl-4,6,6a,7,8,9-hexahydroindolo[4,3-fg]quinolin-9-yl)((2S,4S)-2,4-dimethylazetidin-1-yl)methanone] | 87 | 62.1 | 76.2 | – | 57 | – | – | – | – | – | – | – | – | –
